Measurements reported in paper PMC12310023 (PLOS Neglected Tropical Diseases, 2025).
Read-outs that look alike come from different tables or passages of the source.

Assays:
[1] = tested on: C. parvum U AZ Laboratory isolate; assay: microbe, parasite or virus in culture; type: cell-based, Cryptosporidium parvum; conditions: Cryptosporidium parvum; for EC50: Calibr Crypto Panel 2, 2018-06-18, read-out: Sterling Lab C. parvum Spot Count EC50; for EC90: Calibr Crypto Panel 2, read-out: Sterling Lab C. parvum Spot Count EC90
[2] = tested on: C. parvum Bunch Grass Farms isolate; assay: Calibr high-content imaging Cryptosporidium panel; type: cell-based, Cryptosporidium parvum; conditions: Cryptosporidium parvum
[3] = tested on: C. parvum Zambriski Laboratory isolate; assay: Calibr high-content imaging Cryptosporidium panel; type: cell-based, Cryptosporidium parvum; conditions: Cryptosporidium parvum; for EC50: read-out: Wild C. parvum Spot Count EC50; for EC90: read-out: Wild C. parvum Spot Count EC90
C. hominis TU502 isolate = assay: Calibr high-content imaging Cryptosporidium panel; type: cell-based, Cryptosporidium hominis; conditions: Cryptosporidium hominis
NLuc C. parvum (Calibr) = assay: Calibr panel, UA Nanoluc C. parvum count; type: cell-based; conditions: Cryptosporidium parvum; for EC50: read-out: UA Nanoluc C. parvum Count EC50; for EC90: read-out: UA Nanoluc C. parvum Count EC90
72H HEK293T Cytotoxicity = type: cell-based; conditions: human, HEK293T cells
[4] = HCT-8 host cell count (Calibr); conditions: human
PPARУ = biological target: T1, PPARУ (Homo sapiens, UniProt P37231); assay: Cerep cellular and nuclear receptor functional assay; type: cell-based; conditions: read-out: IC50, antagonist effect
T1 construct: Cerep (Eurofins, France)
T1 sequence (P37231 1-505): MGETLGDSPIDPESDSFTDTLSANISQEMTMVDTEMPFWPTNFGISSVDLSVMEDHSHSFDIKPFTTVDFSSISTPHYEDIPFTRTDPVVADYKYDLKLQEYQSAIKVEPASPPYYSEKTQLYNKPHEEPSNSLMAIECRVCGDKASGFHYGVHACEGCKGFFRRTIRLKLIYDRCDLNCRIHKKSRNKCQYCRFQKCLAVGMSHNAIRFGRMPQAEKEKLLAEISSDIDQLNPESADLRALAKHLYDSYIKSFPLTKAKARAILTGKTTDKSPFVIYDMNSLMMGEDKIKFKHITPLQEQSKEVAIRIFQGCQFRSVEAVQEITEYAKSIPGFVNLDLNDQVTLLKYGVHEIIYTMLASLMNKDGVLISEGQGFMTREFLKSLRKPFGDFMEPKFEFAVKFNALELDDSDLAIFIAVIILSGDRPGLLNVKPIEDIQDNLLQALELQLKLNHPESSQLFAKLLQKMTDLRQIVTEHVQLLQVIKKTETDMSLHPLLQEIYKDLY

5-HT2B = biological target: T2, 5-HT2B (Homo sapiens, UniProt P41595); assay: as above; type: cell-based; conditions: read-out: IC50, antagonist effect
T2 construct: Cerep (Eurofins, France)
T2 sequence (P41595 whole entry): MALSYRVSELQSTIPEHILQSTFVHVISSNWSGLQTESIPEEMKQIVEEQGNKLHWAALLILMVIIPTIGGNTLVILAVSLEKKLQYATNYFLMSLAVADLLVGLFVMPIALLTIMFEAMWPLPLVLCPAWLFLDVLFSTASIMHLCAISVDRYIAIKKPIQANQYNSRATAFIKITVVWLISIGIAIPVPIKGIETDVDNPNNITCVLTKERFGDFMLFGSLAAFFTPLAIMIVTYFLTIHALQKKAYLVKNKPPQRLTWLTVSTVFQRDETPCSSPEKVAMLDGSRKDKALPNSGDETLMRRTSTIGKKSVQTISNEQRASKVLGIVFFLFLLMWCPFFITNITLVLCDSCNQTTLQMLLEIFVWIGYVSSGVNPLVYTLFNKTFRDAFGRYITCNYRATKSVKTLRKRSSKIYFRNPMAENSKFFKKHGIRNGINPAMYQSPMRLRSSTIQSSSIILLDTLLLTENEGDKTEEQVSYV

[5] = read-out: Bunch Grass Farm C. parvum Count EC50, Crypto Panel 3 Replicate 1
[6] = read-out: Bunch Grass Farm C. parvum Count EC50, Crypto Panel 3 Replicate 2
[7] = read-out: Bunch Grass Farm C. parvum Count EC90, Replicate 1
[8] = read-out: Bunch Grass Farm C. parvum Count EC90, Replicate 2
[9] = read-out: Bunch Grass Farm C. parvum Spot Count EC50, Calibr Crypto Panel 2
[10] = read-out: Bunch Grass Farm C. parvum Spot Count EC90, Calibr Crypto Panel 2
[11] = read-out: C. hominis Spot Count EC50, Calibr Crypto Panel 2, 2018-07-02
[12] = read-out: C. hominis Spot Count EC90, Calibr Crypto Panel 2
[13] = read-out: TU502 C. hominis Count EC50, Replicate 1
[14] = read-out: TU502 C. hominis Count EC50, Replicate 2
[15] = read-out: TU502 C. hominis Count EC90, Replicate 1
[16] = read-out: TU502 C. hominis Count EC90, Replicate 2
[17] = CC50, HCT-8 cells infected with BGF Cp, Replicate 1
[18] = CC50, HCT-8 cells infected with BGF Cp, Replicate 2
[19] = CC50, HCT-8 cells infected with Ch, Replicate 1
[20] = CC50, HCT-8 cells infected with Ch, Replicate 2
[21] = CC50, HCT-8 cells infected with UA Nluc Cp, Replicate 1
[22] = CC50, HCT-8 cells infected with UA Nluc Cp, Replicate 2
[23] = HCT-8 Cell Count CC50, host cells infected with Sterling oocysts
[24] = Crypto Panel 3 Replicate 1, read-out: Bunch Grass Farm C. parvum Count EC50
[25] = Crypto Panel 3 Replicate 2, read-out: Bunch Grass Farm C. parvum Count EC50
[26] = Replicate 1, read-out: Bunch Grass Farm C. parvum Count EC90
[27] = Replicate 2, read-out: Bunch Grass Farm C. parvum Count EC90
[28] = Replicate 1, read-out: TU502 C. hominis Count EC50
[29] = Replicate 1, read-out: TU502 C. hominis Count EC90
[30] = Replicate 2, read-out: TU502 C. hominis Count EC50
[31] = Replicate 2, read-out: TU502 C. hominis Count EC90

Row | SMILES | EC50 [1] | EC90 [1] | EC50 [2, 5] | EC50 [2, 6] | EC90 [2, 7] | EC90 [2, 8] | EC50 [2, 9] | EC90 [2, 10] | EC50 (NLuc C. parvum (Calibr); Replicate 1) | EC90 (NLuc C. parvum (Calibr); Replicate 1) | EC50 (NLuc C. parvum (Calibr); Replicate 2) | EC90 (NLuc C. parvum (Calibr); Replicate 2) | CC50 at 72 h (72H HEK293T Cytotoxicity) | CC50 [4, 17] | CC50 [4, 18] | CC50 [4, 19] | CC50 [4, 20] | CC50 [4, 21] | CC50 [4, 22] | CC50 [4, 23] | other results
1 | O=c1[nH]c(=O)n([C@H]2C[C@H](O)[C@@H](CO)O2)cc1F [5-fluoro-2'-deoxyuridine] | 3.67 nM | 9.97 nM | 39.7 nM | 29 nM | 68.8 nM | 86 nM | 3.1 nM | 11.7 nM | 43.1 nM | 158 nM | 33.1 nM | 117 nM | 7.23 nM | 192 nM | 80.3 nM | 71.8 nM | 9.05 nM | 196 nM | 43 nM | 79 nM | EC50 [3]: 5.29 nM; EC90 [3]: 80.4 nM; EC50 (C. hominis TU502 isolate; [11]): 33.5 nM; EC90 (C. hominis TU502 isolate; [12]): 679 nM; EC50 (C. hominis TU502 isolate; [13]): 51.1 nM; EC50 (C. hominis TU502 isolate; [14]): 29.2 nM; EC90 (C. hominis TU502 isolate; [15]): 196 nM; EC90 (C. hominis TU502 isolate; [16]): 222 nM
2 | CC(C)/N=c1\cc2n(-c3ccc(Cl)cc3)c3ccccc3nc-2cc1Nc1ccc(Cl)cc1 [Clofazimine] |  |  |  |  |  |  |  |  | 23.6 nM | 392 nM | 67 nM | 1370 nM |  | > 25000 nM | > 25000 nM | > 25000 nM | > 25000 nM | > 25000 nM | > 25000 nM |  | EC50 [2, 24]: 119 nM; EC50 [2, 25]: 678 nM; EC90 [2, 26]: 2710 nM; EC90 [2, 27]: 1170 nM; EC50 (C. hominis TU502 isolate; [28]): 517 nM; EC90 (C. hominis TU502 isolate; [29]): 1190 nM; EC50 (C. hominis TU502 isolate; [30]): 707 nM; EC90 (C. hominis TU502 isolate; [31]): 1520 nM
3 | O=C(Nc1ccccc1)c1cc([N+](=O)[O-])ccc1Cl [GW 9662, reference compound] |  |  |  |  |  |  |  |  |  |  |  |  |  |  |  |  |  |  |  |  | IC50 (PPARУ): 34 nM
4 | CC(=O)Oc1ccccc1C(=O)Nc1ncc([N+](=O)[O-])s1 [Nitazoxanide] | 3940 nM | 20800 nM |  |  |  |  |  |  | > 30000 nM | > 30000 nM | 4760 nM | 25000 nM | 40300 nM | > 30000 nM | > 30000 nM | > 30000 nM | > 30000 nM | > 30000 nM | > 30000 nM | 19900 nM | EC50 [2, 24]: 11300 nM; EC50 [2, 25]: 6050 nM; EC90 [2, 26]: 19600 nM; EC90 [2, 27]: 12000 nM; EC50 ([2]; Calibr Crypto Panel 2, read-out: Bunch Grass Farm C. parvum Spot Count EC50): 6990 nM; EC90 ([2]; Calibr Crypto Panel 2, read-out: Bunch Grass Farm C. parvum Spot Count EC90): 16800 nM; EC50 ([3]; Calibr Crypto Panel 2): 9040 nM; EC90 ([3]; Calibr Crypto Panel 2): 15700 nM; EC50 (C. hominis TU502 isolate; Calibr Crypto Panel 2, 2018-07-02, read-out: C. hominis Spot Count EC50): 5820 nM; EC90 (C. hominis TU502 isolate; Calibr Crypto Panel 2, read-out: C. hominis Spot Count EC90): 278000 nM; EC50 (C. hominis TU502 isolate; [28]): 8220 nM; EC90 (C. hominis TU502 isolate; [29]): 14200 nM; EC50 (C. hominis TU502 isolate; [30]): 6030 nM; EC90 (C. hominis TU502 isolate; [31]): 12300 nM
5 | COc1ccc(C[C@H](N)C(=O)N[C@H]2[C@@H](O)[C@H](n3cnc4c(N(C)C)ncnc43)O[C@@H]2CO)cc1 [Puromycin] | 165 nM | 406 nM | 403 nM | 274 nM | 1140 nM | 847 nM | 177 nM | 398 nM | 337 nM | 1020 nM | 233 nM | 1320 nM | 319 nM | 3090 nM | 2810 nM | 2660 nM | 2810 nM | 2970 nM | 2370 nM | 3100 nM | EC50 [3]: 274 nM; EC90 [3]: 1920 nM; EC50 (C. hominis TU502 isolate; [11]): 1840 nM; EC90 (C. hominis TU502 isolate; [12]): 3570 nM; EC50 (C. hominis TU502 isolate; [13]): 730 nM; EC50 (C. hominis TU502 isolate; [14]): 504 nM; EC90 (C. hominis TU502 isolate; [15]): 1900 nM; EC90 (C. hominis TU502 isolate; [16]): 1500 nM
6 | Cn1ccc2cc3c(cc21)CCN3C(=O)Nc1cccnc1 [SB 206553, reference compound] |  |  |  |  |  |  |  |  |  |  |  |  |  |  |  |  |  |  |  |  | IC50 (5-HT2B): 21 nM
